This note sets out measurements from US9273075B2, “Prodrugs of 1,4-benzodiazepinone compounds” (BRISTOL-MYERS SQUIBB COMPANY, priority 2012, dated 2016).

Series [1] can be described thus: Solution Stability Assay. Format: physicochemical. How it is done:
Acetonitrile Stock Solution: Acetonitrile Stock Solution of the prodrug was prepared by dissolving 1.5-2.0 mg of weighted compound in 5.0 mL of acetonitrile in a 5 mL volumetric flask.
pH 6.5 Buffer Working Solution: A pH 6.5 Buffer Working Solution of drug was prepared by adding 1.5 mL of the Acetonitrile Stock Solution to 3.5 mL of stability buffer (50 mM potassium phosphate, pH 6.5) in a 10 mL vial, and mixing. Using a 3 mL syringe, ˜3 mL of solution was withdrawn and filtered using the Gelman 0.45 μm syringe filter into a clean 1.5 mL LC vial. This filtered solution will was used to evaluate the prodrug degradation throughout the course of the study. Target concentration: 90-120 μg/mL (70% Aqueous: 30% Acetonitrile)
pH 4.0 Acidic Working Solution: A pH 4.0 Working Solution of drug was prepared by adding 1.5 mL of the Acetonitrile Stock Solution to 3.5 mL of stability buffer (50 mM sodium acetate, pH 4.0) in a 10 mL vial and mixing. Using a 3 mL syringe, ˜3 mL of solution was withdrawn and filtered using the Gelman 0.45 μm syringe filter into a clean 1.5 mL LC vial. This filtered solution was used to evaluate the prodrug degradation throughout the course of the study. Target concentration: 90-120 μg/mL (70% Aqueous: 30% Acetonitrile)
Experimental Methods: Following the sample preparation procedure described above a single sample (n=1) was prepared for each pH condition. The samples were then placed in an HPLC autosampler maintained at 37° C. and samples were analyzed over a 24 h period. Prodrug remaining (%) was reported relative to the initial peak area (t=0 h). In cases where a conversion to parent half-life could be calculated, a t1/2 was generated. Confirmation of the conversion to parent from the prodrug was obtained by LCMS and HPLC analysis of the final timepoint samples.
Typical LC parameters are shown below: • HPLC System: HP1100 Series, Hewlett Packard., Heated autosampler • Analytical column: Synergi 4 u Hydro C18, 4.6 mm×5.0 cm, PHENOMENEX® • Column temperature: 40° C. • Autosampler temp: 37° C. • Flow rate: 1.0 mL/min • Injection Volume: 10 μL • Mobile Phase: A: Acetonitrile • B: 0.1% Phosphoric acid in water • Run Time: 14.0 minutes Typical LCMS parameters are shown below: • LC-MS System: Surveyor HPLC system, ThermoFinnigan LCQ Deca XP Max (Ion trap) • Analytical column: Synergi 4 u Hydro C18, 4.6 mm×5.0 cm, PHENOMENEX® • Column temperature: 40° C. • Autosampler temp: 22° C. • Flow rate: 1.0 mL/min • Injection Volume: 5 μL • Mobile Phase: A: 95% Acetonitrile/5% 20 mM Ammonium Acetate • B: 5% Acetonitrile/95% 20 mM Ammonium Acetate LCQ Parameters: • Sheath Flow Rate: 81.64 • Aux/Sweep Flow Rate: 19.01 • Current (uA): 10.89 • Voltage (kV): 5.00 • Capillary (C): 348.10 • Capillary Voltage (V): 30.44

The nature of series [2]: Thermodynamic Equilibrium Aqueous Solubility Assay. Format: physicochemical. The conditions noted are these: thermodynamic from solid. Here is the method: Standards Preparation: The calibration standard was prepared by accurately weighing 0.5-0.7 mg of sample in 5 ml of methanol. If the material was not fully soluble in methanol, other solvents such as DMSO or mixed solvents were used.
Test Sample Preparation: An excess amount of powder prodrug was equilibrated with 1 mL of buffer (50 mM potassium phosphate, pH 6.5 and 50 mM sodium acetate, pH 4.0) in a 2 mL glass vial. The solution was sonicated and vortexed for ˜30 seconds. The vials were shaken at 300 rpm at room temperature for 24 hrs. The exact incubation time for a specific prodrug was based on the prior aqueous stability data. If the compound was stable in the buffer up to 24 hrs, then the solubility was measured after 24 hrs, otherwise kinetic solubility data was reported. The final saturated solution was then transferred to a 1.5 mL Eppendorf tube and centrifuged for ˜2 min. at 10000 rpms. The supernatant from the saturated solution was transferred to a glass HPLC vial and the solubility was analyzed by HPLC using a four point calibration curve.

Where [3] appears, read: potassium phosphate buffer with 30% acetonitrile, pH 6.5, read-out: Stability (t1/2, h) pH 6.5 (converted).
[4] abbreviates: sodium acetate buffer with 30% acetonitrile, pH 4, read-out: Stability (t1/2, h) pH 4.0 (converted).
Setting [5] is: potassium phosphate buffer, pH 6.5, aqueous buffer, read-out: Solubility (mg/mL) pH 6.5.
Setting [6] is: sodium acetate buffer, pH 4, aqueous buffer, read-out: Solubility (mg/mL) pH 4.0.

In brackets after ≈: the same amount, converted by molar mass. Where two headings read alike, the source gives them in different places.

Take `CN(C)CCSNC(=O)[C@@H](CCC(F)(F)F)[C@@H](CCC(F)(F)F)C(=O)N[C@H]1N=C(c2ccccc2)c2ccccc2N(C)C1=O` [Example 13, (2S,3R)—N-((2-(Dimethylamino)ethyl)sulfanyl)-N′-((3S)-1-methyl-2-oxo-5-phenyl-2,3-dihydro-1H-1,4-benzodiazepin-3-yl)-2,3-bis(3,3,3-trifluoropropyl)succinamide]: the values for the half-life in series [1] (setting [3]) and in series [1] (setting [4]) were 108 h and 334 h, respectively. The solubility at 24 h in series [2] (setting [5]) is 0.94 mg/mL (≈ 1420 µM); in series [2] (setting [6]), over 0.92 mg/mL.

Turning to `CN1CCN(CNC(=O)[C@@H](CCC(F)(F)F)[C@@H](CCC(F)(F)F)C(=O)N[C@H]2N=C(c3ccccc3)c3ccccc3N(C)C2=O)CC1` [Example 15, (2R,3S)—N-((3S)-1-Methyl-2-oxo-5-phenyl-2,3-dihydro-1H-1,4-benzodiazepin-3-yl)-N′-((4-methyl-1-piperazinyl)methyl)-2,3-bis(3,3,3-trifluoropropyl)succinamide], the half-life in series [1] (setting [3]) and in series [1] (setting [4]) was over 500 h throughout. Also, the solubility at 24 h is over 0.41 mg/mL in series [2] (setting [5]) and 0.27 mg/mL (≈ 404 µM) in series [2] (setting [6]).

For the compound `N[C@@H](CSNC(=O)[C@@H](CCC(F)(F)F)[C@@H](CCC(F)(F)F)C(=O)N[C@H]1N=C(c2ccccc2)c2ccccc2NC1=O)C(=O)O` [Example 9, S-(((2S,3R)-6,6,6-Trifluoro-3-(((3S)-2-oxo-5-phenyl-2,3-dihydro-1H-1,4-benzodiazepin-3-yl)carbamoyl)-2-(3,3,3-trifluoropropyl)hexanoyl)amino)-L-cysteine], the half-life was 58 h in series [1] (setting [3]) and 335 h in series [1] (setting [4]). The solubility at 24 h in series [2] (setting [5]) was 0.64 mg/mL (≈ 967 µM); in series [2] (setting [6]), 0.75 mg/mL (≈ 1130 µM).

As for `CN1C(=O)[C@@H](NC(=O)[C@H](CCC(F)(F)F)[C@H](CCC(F)(F)F)C(=O)NSCCN)N=C(c2ccccc2)c2ccccc21` [Example 11, (2S,3R)—N-((2-Aminoethyl)sulfanyl)-N′-((3S)-1-methyl-2-oxo-5-phenyl-2,3-dihydro-1H-1,4-benzodiazepin-3-yl)-2,3-bis(3,3,3-trifluoropropyl)succinamide], the half-life is 29 h in series [1] (setting [3]) and 215 h in series [1] (setting [4]). Also, the solubility at 24 h was over 3.4 mg/mL in series [2] (setting [5]) and over 2.67 mg/mL in series [2] (setting [6]).

For the compound `CC(C)[C@H](N)C(=O)OCN1C(=O)[C@@H](NC(=O)[C@H](CCC(F)(F)F)[C@H](CCC(F)(F)F)C(N)=O)N=C(c2ccccc2)c2ccccc21` [Example 6, ((3S)-3-(((2R,3S)-3-Carbamoyl-6,6,6-trifluoro-2-(3,3,3-trifluoropropyl)hexanoyl)amino)-2-oxo-5-phenyl-2,3-dihydro-1H-1,4-benzodiazepin-1-yl)methyl L-valinate], the half-life in series [1] (setting [3]) is 41 h; in series [1] (setting [4]), over 500 h. The solubility at 24 h in series [2] (setting [5]) amounted to 0.5 mg/mL (≈ 744 µM); in series [2] (setting [6]), 0.3 mg/mL (≈ 447 µM).

Consider `CC(C)CNCNC(=O)[C@@H](CCC(F)(F)F)[C@@H](CCC(F)(F)F)C(=O)N[C@H]1N=C(c2ccccc2)c2ccccc2N(C)C1=O` [Example 10, (2S,3R)—N-((Isobutylamino)methyl)-N′-((3S)-1-methyl-2-oxo-5-phenyl-2,3-dihydro-1H-1,4-benzodiazepin-3-yl)-2,3-bis(3,3,3-trifluoropropyl)succinamide], for which, in series [1] (setting [3]), the half-life is 32 h. The solubility at 24 h in series [2] (setting [5]) was under 0.001 mg/mL; in series [2] (setting [6]), over 0.27 mg/mL.

For the compound `Cc1cc(C)c(C(C)(C)CC(=O)OCN2C(=O)[C@@H](NC(=O)[C@H](CCC(F)(F)F)[C@H](CCC(F)(F)F)C(N)=O)N=C(c3ccccc3)c3ccccc32)c(OP(=O)(O)O)c1` [Example 3, (3-(((2R,3S)-3-Carbamoyl-6,6,6-trifluoro-2-(3,3,3-trifluoropropyl)hexanoyl)amino)-2-oxo-5-phenyl-2,3-dihydro-1H-1,4-benzodiazepin-1-yl)methyl 3-(2,4-dimethyl-6-(phosphonooxy)phenyl)-3-methylbutanoate], the half-life in series [1] (setting [3]) and in series [1] (setting [4]) was over 500 h in each case. Also, the solubility at 24 h in series [2] (setting [5]) is over 0.52 mg/mL; in series [2] (setting [6]), over 0.28 mg/mL.

As for `CN1C(=O)[C@@H](NC(=O)[C@H](CCC(F)(F)F)[C@H](CCC(F)(F)F)C(=O)NCN2CCC(O)C2)N=C(c2ccccc2)c2ccccc21` (stereo partly drawn) [Example 20, (2S,3R)—N-((3-Hydroxy-1-pyrrolidinyl)methyl)-N′-((3S)-1-methyl-2-oxo-5-phenyl-2,3-dihydro-1H-1,4-benzodiazepin-3-yl)-2,3-bis(3,3,3-trifluoropropyl)succinamide], the half-life is 15 h in series [1] (setting [3]) and 97 h in series [1] (setting [4]). Besides, the solubility at 24 h was 0.39 mg/mL (≈ 595 µM) in series [2] (setting [5]) and 0.43 mg/mL (≈ 656 µM) in series [2] (setting [6]).

Turning to `CN1C(=O)[C@@H](NC(=O)[C@H](CCC(F)(F)F)[C@H](CCC(F)(F)F)C(=O)NCN2CCC(O)CC2)N=C(c2ccccc2)c2ccccc21` [Example 19, (2S,3R)—N-((4-Hydroxy-1-piperidinyl)methyl)-N′-((3S)-1-methyl-2-oxo-5-phenyl-2,3-dihydro-1H-1,4-benzodiazepin-3-yl)-2,3-bis(3,3,3-trifluoropropyl)succinamide], the results for the half-life in series [1] (setting [3]) and in series [1] (setting [4]) were 56 h and over 500 h, respectively. The solubility at 24 h is over 1.42 mg/mL in series [2] (setting [5]) and 0.97 mg/mL (≈ 1450 µM) in series [2] (setting [6]).

In the case of `CN1C(=O)[C@@H](NC(=O)[C@H](CCC(F)(F)F)[C@H](CCC(F)(F)F)C(=O)NCN2CCCC2)N=C(c2ccccc2)c2ccccc21` [Example 22, (2R,3S)—N-((3S)-1-Methyl-2-oxo-5-phenyl-2,3-dihydro-1H-1,4-benzodiazepin-3-yl)-N′-(1-pyrrolidinylmethyl)-2,3-bis(3,3,3-trifluoropropyl)succinamide], the half-life in series [1] (setting [3]) is 7 h. For the same compound, the solubility at 24 h in series [2] (setting [5]) was 0.03 mg/mL (≈ 46.9 µM); in series [2] (setting [6]), over 0.39 mg/mL.

Regarding `C[C@H](N)C(=O)OCN1C(=O)[C@@H](NC(=O)[C@H](CCC(F)(F)F)[C@H](CCC(F)(F)F)C(N)=O)N=C(c2ccccc2)c2ccccc21` [Example 5, ((3S)-3-(((2R,3S)-3-Carbamoyl-6,6,6-trifluoro-2-(3,3,3-trifluoropropyl)hexanoyl)amino)-2-oxo-5-phenyl-2,3-dihydro-1H-1,4-benzodiazepin-1-yl)methyl L-alaninate], the half-life in series [1] (setting [3]) is 5 h; in series [1] (setting [4]), 92 h. For the same compound, the results for the solubility at 24 h in series [2] (setting [5]) and in series [2] (setting [6]) were 3.2 mg/mL (≈ 4970 µM) and 2.3 mg/mL (≈ 3570 µM), respectively.

As for `CN1C(=O)[C@@H](NC(=O)[C@H](CCC(F)(F)F)[C@H](CCC(F)(F)F)C(=O)NCN2CCC(N(C)C)CC2)N=C(c2ccccc2)c2ccccc21` [Example 18, (2S,3R)—N-((4-(Dimethylamino)-1-piperidinyl)methyl)-N′-((3S)-1-methyl-2-oxo-5-phenyl-2,3-dihydro-1H-1,4-benzodiazepin-3-yl)-2,3-bis(3,3,3-trifluoropropyl)succinamide], the half-life in series [1] (setting [3]) and in series [1] (setting [4]) was over 500 h in each case. In addition, the solubility at 24 h in series [2] (setting [5]) is over 1.05 mg/mL; in series [2] (setting [6]) it was 0.29 mg/mL (≈ 416 µM).
